Test results reported in ChEMBL document CHEMBL3988442, “University of Dundee, Small-Polar-MMV Screening Library” (2021).

Test system: not listed separately
Assay: microbe, parasite or virus in culture
Details: Mycobacterium tuberculosis, 72 h, read-out: pIC50 (converted)

| Compound | IC50 [µM] |
| --- | --- |
| CCc1[nH]c2c(CNc3cc(C)nc(NC)n3)cc(C)cc2c1C | 35.7 |
| Cc1nc(-c2cc(Cl)cc3c2OC(CN)C3)c[nH]1 (stereo not given) | 13.6 |

Test system: Plasmodium falciparum
Assay: Calibr Malaria Delayed Death Assay SOP
Type: functional, organism-based
Details: not given

| Compound | pIC50 |
| --- | --- |
| CCc1[nH]c2c(CNc3cc(C)nc(NC)n3)cc(C)cc2c1C | 6.096 |
| Cc1nc(-c2cc(Cl)cc3c2OC(CN)C3)c[nH]1 (stereo not given) | 6.207 |

Same assay, conditions: Plasmodium falciparum

| Compound | IC50 [µM] |
| --- | --- |
| CCc1[nH]c2c(CNc3cc(C)nc(NC)n3)cc(C)cc2c1C | 0.75 |
| Cc1nc(-c2cc(Cl)cc3c2OC(CN)C3)c[nH]1 (stereo not given) | 0.655 |

Test system: not listed separately
Assay: microbe, parasite or virus in culture
Details: Mycobacterium tuberculosis, 96 h, read-out: pIC50 (converted)

| Compound | IC50 [µM] |
| --- | --- |
| CCc1[nH]c2c(CNc3cc(C)nc(NC)n3)cc(C)cc2c1C | 40.3 |
| Cc1nc(-c2cc(Cl)cc3c2OC(CN)C3)c[nH]1 (stereo not given) | > 50.1 |

Biological target: ClpP1P2 (Mycobacterium tuberculosis (strain ATCC 25618 / H37Rv), UniProt P9WPC3+P9WPC5)
Assay: in vitro assay to detect presence of AMC directly proportional to the activity of ClpP1P2. GHDDI collaboration.
Type: functional
Details: not given

Chain of ClpP1P2 (P9WPC5 whole entry): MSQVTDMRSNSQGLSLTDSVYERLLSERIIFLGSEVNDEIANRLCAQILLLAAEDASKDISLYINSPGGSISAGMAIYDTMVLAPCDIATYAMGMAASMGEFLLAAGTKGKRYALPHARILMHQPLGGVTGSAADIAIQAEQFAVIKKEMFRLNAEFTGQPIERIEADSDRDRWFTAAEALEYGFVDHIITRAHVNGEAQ
Chain of ClpP1P2 (P9WPC3 whole entry): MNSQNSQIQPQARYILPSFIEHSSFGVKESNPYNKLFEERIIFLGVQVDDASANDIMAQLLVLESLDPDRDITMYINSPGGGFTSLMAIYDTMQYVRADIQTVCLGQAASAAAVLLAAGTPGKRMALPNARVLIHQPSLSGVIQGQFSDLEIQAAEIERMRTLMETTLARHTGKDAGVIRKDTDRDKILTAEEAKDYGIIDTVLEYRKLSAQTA

| Compound | IC50 [µM] |
| --- | --- |
| CCN(CC)C(=O)CN1CCCC1c1nc(C)c2c(n1)N(C)C(=O)CC2 (stereo not given) | > 100 |
| Cn1ccc(-c2cc(C(=O)N3CCC(C(N)=O)CC3)c3ccccn23)n1 | > 100 |
| CC(Cc1ccco1)NC(=O)Nc1ccc(N2CCCC2)nc1 (stereo not given) | > 100 |
| CCC1(CO)CCCN(c2ncccc2C#N)C1 (stereo not given) | > 100 |
| CCN(CC)C(=O)CCNc1cncc(-n2nc(C)cc2C)n1 | > 100 |
| CC(C)N1CCC(c2cc(C(F)(F)F)n3ccnc3n2)CC1 | > 100 |
| CS(=O)(=O)N1CCCCCC1C1CCN(c2ncccc2C#N)CC1 (stereo not given) | > 100 |
| O=C(NCCC(=O)N1CCCc2ccccc21)c1ccc(F)cc1F | > 100 |
| CNc1cncc(C2CCCN2C(=O)Cn2ccnc2C)n1 (stereo not given) | > 100 |
| CCc1ncc2c(n1)CN(C(C)C(=O)Nc1ccc(Cl)cn1)CC2 (stereo not given) | > 100 |
| Cc1n[nH]c(=O)c2c(NC(=O)CN3CCC(O)CC3)oc(C)c12 | > 100 |
| Cc1nc(C(=O)N(CC(=O)N(C)C)CC(F)(F)F)c2ccccn12 | > 100 |
| Cc1n[nH]c(=O)c2c(NC(=O)CN3CCCC(C(F)(F)F)C3)oc(C)c12 (stereo not given) | > 100 |
| CCCc1nc(CNCC2CCCN2c2cccnn2)no1 (stereo not given) | > 100 |
| Cc1cnc(CCNc2cccc(CC3CCCNC3)n2)s1 (stereo not given) | > 100 |
| NC(=O)C1CCN(c2nc3nccc(-c4ccncc4)c3c(=O)[nH]2)CC1 | > 100 |
| CN1CCC(c2nccnc2Nc2cnccn2)CC1 | > 100 |
| Cc1nc(-c2nc(C(=O)N(C)C)c3ccccn23)cn1C(C)C | > 100 |
| Cc1nc(CN(C)C2CCN(Cc3nc4ccccc4n3C)C2)no1 (stereo not given) | > 100 |
| CNc1cnc(CC2COCCN(CCOc3ccccc3)C2)cn1 (stereo not given) | > 100 |
| O=C(NCCOC1CCCC1)c1ccc(-c2ccco2)[nH]c1=O | > 100 |
| COCCNC(=O)c1nc(-c2cn(C)cn2)n2ccccc12 | > 100 |
| CCCn1cc(-c2cc(-c3c[nH]cn3)c(C#N)c(N)n2)c(C)n1 | > 100 |
| CCc1ccc(S(=O)(=O)N2CCCC3(CCCN3S(C)(=O)=O)C2)cc1 (stereo not given) | > 100 |

| Compound | IC50 [µM] |
| --- | --- |
| CNC(=O)c1cnn2c(C3CCCN3)ccnc12 (stereo not given) | > 100 |
| Cc1cnn(CC2CCCCN2C(=O)c2nccnc2N)c1 (stereo not given) | > 100 |
| CC(C)C1CN(c2cccc(C#N)n2)CCCN1CC1CC1 (stereo not given) | > 100 |
| CC1CCN(C(=O)c2cnn3c(-c4ccco4)ccnc23)CC1 | > 100 |
| Cc1ccc2cc(CN(C)Cc3ccncn3)c(=O)[nH]c2c1 | > 100 |
| N#Cc1c(C2CC2)cc(-c2ccc(O)cc2)nc1N | > 100 |
| CCOc1ccc2[nH]c(=O)c(CN3CCCC(CO)(CO)C3)cc2c1 | > 100 |
| N#Cc1ccnc(N2CCC(c3nccn3Cc3cscn3)CC2)c1 | > 100 |
| CN(C)C(=O)CN1C[C@@H]2CC[C@H](C1)N(Cc1ccc(Cl)cc1Cl)C2 | > 100 |
| CNC(=O)c1cc(C)ccc1NCc1cn2cc(C)ccc2n1 | > 100 |
| Cc1n[nH]c(C)c1-c1cc(-c2cccc(O)c2)nc(N)c1C#N | > 100 |
| Cc1ccc(C#N)c(N2CCC3(CCC(=O)N(CC(N)=O)C3)CC2)n1 | > 100 |
| CCc1nc(C2CCCN(C(=O)CC3CCOCC3)C2)no1 (stereo not given) | > 100 |
| CCn1cnnc1CNC(=O)N1CCN(Cc2ccco2)CC1 | > 100 |
| O=C(c1cc(F)ccc1F)C1CCN(C(=O)c2cnccn2)CC1 | > 100 |
| N#Cc1c(N)nc2c(c1C1CCOC1)CCc1cc(O)ccc1-2 (stereo not given) | > 100 |
| c1ccc(-n2cc(CN3CCCC3Cn3cccn3)nn2)cc1 (stereo not given) | > 100 |
| c1ccc2nc(N3CCCC3c3nnc4n3CCCCC4)cnc2c1 (stereo not given) | > 100 |
| Cc1cc(-c2cc(-c3cc(CC(=O)O)cs3)nc(N)c2C#N)oc1C | > 100 |
| CC(C)C1Nc2ccccc2C(=O)N1CC(=O)Nc1nc2c(s1)CCC2 (stereo not given) | > 100 |
| CC(C)Nc1oc(-c2ccc(S(=O)(=O)N(C)C)o2)nc1C#N | > 100 |
| Cc1nc(CN(C)C2CCN(Cc3ccc4c(c3)CCC4)C2)no1 (stereo not given) | > 100 |
| CNc1cncc(C2CCN(C(=O)c3cnco3)CC2)n1 | > 100 |
| Cc1cnn(CC2CN(Cc3csc(C4CCCC4)n3)CCO2)c1 (stereo not given) | > 100 |

| Compound | IC50 [µM] |
| --- | --- |
| CC(=O)N1CCC(c2cncc(N3CCOCC3)n2)CC1 | > 100 |
| c1coc(-c2noc(CN3CCc4cncnc4C3)n2)c1 | > 100 |
| CN(C)C1CCN(C(=O)c2cc(-c3ccn(C)n3)n3ccccc23)CC1 | > 100 |
| CC(C)Cc1cc(-c2cc(-c3ccc[nH]3)nc(N)c2C#N)n[nH]1 | > 100 |
| COCCOc1ccc(CNc2cnc3ccccc3n2)cn1 | > 100 |
| Cn1ccnc1CN1CCN(CC(O)c2cc(F)ccc2F)CC1 (stereo not given) | > 100 |
| CN(C)C1CCN(C(=O)Cc2csc(-c3ncccn3)n2)CC1 | > 100 |
| Cc1nn(C)c(C)c1C1CCCN1C(=O)c1ccnc(N(C)C)c1 (stereo not given) | > 100 |
| Cc1nc(C2CCCN2CC(=O)Nc2c(C)n[nH]c2C)no1 (stereo not given) | > 100 |
| CC(Cn1cccn1)Nc1cnc2ccccc2n1 (stereo not given) | > 100 |
| CCC[C@@H]1CN(c2cncc(C(=O)N3CCOCC3)n2)C[C@H]1N(C)C | > 100 |
| Cc1cnn(CC2CN(Cc3nc4cccnc4[nH]3)CCO2)c1 (stereo not given) | > 100 |
| CC(C)c1nnc2n1CCN(Cc1csc(CC(=O)N(C)C)n1)C2 | > 100 |
| CC(=O)N1CCC(c2cnc(NC3CCOCC3)cn2)CC1 | > 100 |
| CC(C)n1c2ccccc2c2c1cc(C(=O)N(C)C)n2C(=O)N(C)C | > 100 |
| CC(C)c1ncc(-c2cc(C3CCC3)nc(N)c2C#N)cn1 | > 100 |
| O=C(c1cncc(N2CCC(O)(CO)CC2)n1)N1CCCC1 | > 100 |
| Cc1n[nH]c(=O)c2c(NC(=O)CN3CCOC(C)C3)oc(C)c12 (stereo not given) | > 100 |
| CC(O)c1cn(CC2CCN(C(=O)c3cscn3)CC2)nn1 (stereo not given) | 84.4 |
| Cc1ccc(C#N)c(N2CCC3(CCCN(C4CCOCC4)C3=O)C2)n1 (stereo not given) | > 100 |
| CCc1nc(C2CCCN2C(=O)CCCn2cncn2)no1 (stereo not given) | > 100 |
| O=C(NCCCn1cncn1)c1ccc(-c2ccco2)[nH]c1=O | > 100 |
| CN(C)S(=O)(=O)N1CC[C@]2(O)CCN(c3cc(C#N)ccn3)C[C@@H]2C1 | > 100 |
| CN(Cc1cccc(C(N)=O)c1)CC1CCCN1c1cccnn1 (stereo not given) | > 100 |

| Compound | IC50 [µM] |
| --- | --- |
| COc1ccc(C(=O)N(C)Cc2nnc3ccccn23)c(OC)c1OC | > 100 |
| COc1ncc(NCc2cc(C#N)cs2)cc1C(N)=O | > 100 |
| CCCC(C)NC(=O)c1ccc(-c2ccco2)[nH]c1=O (stereo not given) | > 100 |
| CC(=O)N1CCc2[nH]cnc2C1C1=CCCN(CCn2cccc2)C1 (stereo not given) | > 100 |
| CNc1cncc(C2CCCN2C(=O)CCn2ccnc2C(C)C)n1 (stereo not given) | > 100 |
| COc1ccnc(N2CCN(C(=O)Cc3ccsc3)CC2)n1 | > 100 |
| COCc1nc(C(=O)N2CCCC(n3nc(C)cc3C)C2)cs1 (stereo not given) | > 100 |
| CCC(C)(C)NC(=O)c1ccc(-c2ccco2)[nH]c1=O | > 100 |
| CCc1nnc(CNC2CCCN(Cc3noc(C4CC4)n3)C2)o1 (stereo not given) | > 100 |
| CCC(CNC(=O)Nc1cnn(CC)c1)N1CCc2ccccc2C1 (stereo not given) | > 100 |
| Cc1nc(-c2ccsc2)ccc1C(=O)NCC(C)N1CCOCC1 (stereo not given) | > 100 |
| CCn1nc(NC(=O)Cn2ccc(C(C)=O)n2)c2ccccc21 | > 100 |
| O=C(CO)N1CCC(CCc2ccnc(Nc3cnccn3)c2)CC1 | > 100 |
| Cc1cc(C)n(-c2cncc(NCCNC(=O)C(C)C)n2)n1 | > 100 |
| N[C@H]1CN(C(=O)c2ccccc2OCCc2ccccc2)C[C@@H]1C1CC1 | > 100 |
| O=C1CCc2cc(NC(=O)C3CCCN3c3nccs3)ccc2N1 (stereo not given) | > 100 |
| CCOC1CCN(C(=O)CN(C)c2cnccn2)CC1 | > 100 |
| CN1CCN(c2nc(O)c3c(-c4ccccn4)ccnc3n2)CC1 | > 100 |
| Nc1nc(CN2CCOC(Cn3cccn3)C2)nc2ccccc12 (stereo not given) | > 100 |
| CS(=O)(=O)NC1CCCN(C(=O)c2cccnc2)C1 (stereo not given) | > 100 |
| CCC[C@H]1CN(c2cncc(C(=O)N(C)C)n2)C[C@@H]1N(C)C | > 100 |
| CN(C)c1ccnc(-c2ccnc3c2ccn3C)n1 | > 100 |
| CN(C)S(=O)(=O)N1CCC(c2n[nH]cc2-c2ccnc(N)c2)C1 (stereo not given) | > 100 |
| COc1ccccc1CNc1ncnc2c1NC(=O)CN2 | > 100 |

| Compound | IC50 [µM] |
| --- | --- |
| Cc1noc(CN(CCc2cccs2)Cc2cccc(C#N)c2)n1 | > 100 |
| Cc1cnn(CC2CN(Cc3nc(C)c4ccccc4n3)CCO2)c1 (stereo not given) | > 100 |
| Cc1ccc2cc(CN(C)Cc3ccccn3)c(=O)[nH]c2c1 | > 100 |
| O[C@@H]1C[C@H]2CN(Cc3ccccc3)[C@H](Cc3ccccc3)CN2C1 | > 100 |
| COc1cc(CN2CCCCCC2c2cccs2)cc(OC)c1O (stereo not given) | 16.8 |
| Cn1ncc(N2CCOC(CCNC(=O)CO)C2)cc1=O (stereo not given) | > 100 |
| CCOc1ccc2[nH]c(=O)c(CN3CCC(n4cnnc4)CC3)cc2c1 | > 100 |
| CCNc1cc2c(nn1)CCN(C(=O)c1ccoc1)C2 | > 100 |
| CC(C)c1nc2oc(C(=O)N3CCOCC3)c(N)c2c2c1CCCC2 | > 100 |
| CCNC(=O)[C@@H]1C[C@H](NC(=O)c2cc(=O)[nH]c3ccc(C)cc23)CN1C | > 100 |
| COc1cccc2ccc(N3CCC(O)(C(=O)O)CC3)nc12 | > 100 |
| Fc1cccc(CNc2cncc(-n3cccn3)n2)c1 | > 100 |
| Cn1cnc(-c2nc(C(=O)NCCN3CCCC3)c3ccccn23)c1 | > 100 |
| Cc1cccc2c1NC1(CCCC1)NC2=O | > 100 |
| O=C(c1c2c(N3CCCC3)ncnc2n2ccccc12)N1CCOCC1 | > 100 |
| COCC(C)N1CCc2onc(-c3ccc(F)c(F)c3)c2C1 (stereo not given) | > 100 |
| Cc1cnn(CC(C)Nc2cnc3ccccc3n2)c1 (stereo not given) | > 100 |
| COCCNc1nc(NCCc2ccccc2)nc2nccnc12 | > 100 |
| CS(=O)(=O)NC1CCN(C(=O)NCc2ccccn2)CC1 | > 100 |
| O=C(NC1CCCC1)c1cnn2c(-c3ccco3)ccnc12 | > 100 |
| Cc1nccn1CCCNc1nccnc1C#N | > 100 |
